Source: article PMC1802613 (Nucleic Acids Research, 2006)

Target: M-PMV NC-dUTPase (Mason-Pfizer monkey virus, UniProt P07570)
Assay: isothermal titration calorimetry
Assay type: binding

M-PMV NC-dUTPase, sequence (P07570 526-759): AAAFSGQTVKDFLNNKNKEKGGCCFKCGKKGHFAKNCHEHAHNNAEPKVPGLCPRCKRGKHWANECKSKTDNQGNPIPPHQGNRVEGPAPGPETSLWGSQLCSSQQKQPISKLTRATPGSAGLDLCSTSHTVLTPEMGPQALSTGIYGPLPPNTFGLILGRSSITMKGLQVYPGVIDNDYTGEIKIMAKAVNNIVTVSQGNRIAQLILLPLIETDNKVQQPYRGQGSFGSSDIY

SMILES: O=c1ccn([C@H]2C[C@H](O)[C@@H](COP(=O)(O)NP(=O)(O)OP(=O)(O)O)O2)c(=O)[nH]1 [α,β-imino dUTP]
- Kd: 1200 ± 20 nM
